What was measured:
[1] = test system: VWF- and platelet-rich white thrombi; test: Lysis of platelet-rich white thrombi in collagen-coated stenotic capillary tube under arterial shear (perfusion of lytic agents); type: cell-based, Porcine
Description: Collagen Coating: The stenotic glass test sections (inner diameter=1.5 mm) described herein were made by the Chemistry and Biochemistry Glass Shop at Georgia Institute of Technology. The % stenosis by diameter reduction ranged from 60% to 80%. Fibrillar equine collagen (type I; Chrono-Log Corporation, Havertown, PA) was diluted 9:1 in NaCl (Sigma-Aldrich, St. Louis, MO) and incubated in the test section at the stenosis for 24 h in a warm, moist environment (Para, A., Bark, D., Lin, A. & Ku, D. Rapid platelet accumulation leading to thrombotic occlusion. Ann Biomed Eng 39, 1961-1971, 2011; Para, A. N. & Ku, D. N. A low-volume, single pass in-vitro system of high shear thrombosis in a stenosis. Thromb Res 131, 418-424, 2013).
(§1) Blood Collection: Porcine blood was collected at a local abattoir immediately following slaughter into 3.5 U/mL heparin (Thermo Fisher Scientific, Waltham, MA) or 3.2% sodium citrate (Sigma-Aldrich, St. Louis, MO). Whole blood was gently agitated using an Orbit LS shaker (Laboratory Supply Network, Atkinson, NH) until perfusion and used in experiments as soon as possible the same day as collection.
Syringe Perfusion: Lightly heparinized whole blood was perfused through the stenotic test section using a syringe pump. The flow rate was set so that the initial wall shear rate in the stenosis was 3,500 s^−1. A pressure transducer was connected in-line upstream of the stenosis (FIG. 2A). A dissecting microscope with a camera (PCO-Tech Incorporated, Romulus, MI) was used to capture images in real-time during perfusion. Blood perfusion continued until the upstream pressure increased by 30 mmHg (equivalent to an arterial pressure head in vivo) as a result of platelet thrombus formation in the stenotic section. Perfusion with a syringe pump (constant flow rate over constant pressure head) ensured that the thrombi were never fully occlusive, allowing subsequent perfusion for the induction of lysis.
(§2) Pharmacologic Agents: Recombinant human tPA (Sigma-Aldrich, St. Louis, MO), recombinant human ADAMTS-13 (MyBiosource, San Diego, CA), abciximab (ReoPro was kindly provided by Dr. Kevin Maher at Emory/CHOA), NAC (Thermo Fisher Scientific, Waltham, MA), and DiNAC (Cayman Chemical, Ann Arbor, Ml) or control (PBS) treatments were perfused for an hour at a flow rate of 1 ml/min. Agent solutions were made by dissolution or dilution in PBS. The in vitro flow system setup and image acquisition are shown in FIG. 2, and the concentrations of each agent are detailed in Table 2.
Real-time image capture (5 frames per second) of the stenosis continued throughout treatment perfusion.
Data Analysis: The thrombi surface area (which was colored green) was calculated using manual pixel counting in the open-source GNU Image Manipulation Program (GIMP, Version 2.10.8, 1995-2018). Surface area reduction was calculated by % pixel reduction versus the occlusion image. Analysis of variance (ANOVA) was used to test for statistical differences between groups, with the significance set at p<0.05.
In this example, a stenotic capillary tube model, which potentiates VWF- and platelet-rich white thrombi in an arterial setting on a collagen-coated stenosis was used (Para, A., Bark, D., Lin, A. & Ku, D. Rapid platelet accumulation leading to thrombotic occlusion. Ann Biomed Eng 39, 1961-1971, 2011; Ku, D. N. & Flannery, C. J. Development of a flow-through system to create occluding thrombus. Biorheology 44, 273-284, 2007; Para, A. N. & Ku, D. N. A low-volume, single pass in-vitro system of high shear thrombosis in a stenosis. Thromb Res 131, 418-424, 2013) to test lysis of 90% occlusive white thrombi (FIG. 2) and perfused low (2 mM) and high (20 mM) concentrations of NAC and DiNAC solutions. As illustrated in FIG. 2. DiNAC, but not NAC, achieved thrombolysis over 60 minutes of perfusion (FIG. 3A-3D). 2 mM and 20 mM DiNAC lysed most of the thrombi (>95%) within 14 min and 1.5 min, respectively (FIG. 3A-3B).

[2] = test system: fibrin clots from recalcified citrated whole blood; test: Red clot lysis under stagnant conditions, whole blood clots; type: cell-based, Porcine; details: whole blood clot, 48 h; DiNAC and NAC at 2 mM
Excerpt: as §1
(§3) Red clot formation and lysis: Platelet rich plasma (PRP) was made by separating citrated whole blood via gravity over a 2 h period and collecting the supernatant. Separation via gravity was employed instead of centrifugation to avoid platelet damage and activation. Citrated whole blood or PRP was then recalcified with CaCl2 to a final [Ca^2+] of 10 mM (Griffin, M. T., Kim, D. & Ku, D. N. Shear-induced platelet aggregation: 3D-grayscale microfluidics for repeatable and localized occlusive thrombosis. Biomicrofluidics 13, 2019), and 200 μl was transferred into 500 μal centrifuge tubes and allowed to clot and retract for 30 min. The clot was then incubated with 100 μl of either agent or control solution. The treatment solution was exchanged by removing the top 100 μl and replacement with fresh solution at 3, 6, 12, 24, and 48 h of incubation. The weight of the tube was measured immediately post-clot formation and at each timepoint after removal of old solution and prior to the replacement with fresh solution.

[3] = test system: fibrin clots from recalcified platelet rich plasma (PRP); test: Red clot lysis under stagnant conditions, PRP clots; type: cell-based, Porcine; details: 48 h, DiNAC and NAC at 2 mM
Excerpt: as §1, §3

white clots = test: Example 3: thrombolytic activity on white clots, procedures of Examples 1 and 2; type: cell-based, Porcine; details: DiNAC: clot breakup over 10 minutes; comparators at 1 hour
Description: In this example, use of DiNAC and other agents as anti-thrombotic agents was tested. A white clot formation in the artery system was modeled by a collagen coated glass capillary tube (Ku DN, Flannery CJ. Development of a flow-through system to create occluding thrombus, Biorheology, 2007; 44(4)273-84). Porcine blood was perfused into the capillary tube using a constant pressure head or a constant flow rate (Para AN, Ku DN. A low-volume, single pass in vitro system of high shear thrombosis in a stenosis, Thrombosis Research, 2013, 131(5):418-24). After clot formation, a thrombolytic agent was perfused into the capillary tube. The detailed capillary tube experimental protocol is summarized below.
In this example, the thrombolytic activity of DiNAC and other lytic agents was tested, using the procedures described in Examples 1 and 2.

FeCl-induced thrombi = details: NAC treatment alone, in vivo mice model; cited from earlier work
[4] = test system: platelet-rich thrombi from heparinized human whole blood; test: Example 4: thrombolysis of human blood thrombi in 3 mm collagen-coated stenotic capillary tubes; type: cell-based; details: human whole blood thrombus
Description: In this example, an in-vitro randomized trial was performed using heparinized human blood in collagen-coated glass capillary tubes with a designed stenosis, mimicking arterial disease. Heparinized human blood was then infused through 3 mm capillary tubes at a constant flow rate, during which near-occlusive thrombi were formed at the region of stenosis (FIG. 11). DiNAC was then infused at a constant flow rate through the capillary tubes in order to observe thrombolytic activity, using a combination of live pressure monitoring and microscopic image capture. All infusions were control-matched with a phosphate-buffered saline solution in lieu of DiNAC.

pH of DiNAC solution = type: physicochemical
Description: as §2
To confirm the efficacy of DiNAC, the dose response was tested at increasing concentrations of 0.02, 0.2, 2, and 20 mM. The thrombus area reduction was dependent on the concentration of DiNAC (FIG. 4). […] Considering the practical use of the DiNAC as a thrombolytic in a clinical setting, the 20 mM DiNAC with sodium bicarbonate to a final pH=7. Neutralization of 20 mM DiNAC reduced the variance from 47% to 12% in surface area reduction (44±47% vs 59±12%, p=0.77, FIG. 4).

[5] = test system: FeCl3 injury-induced thrombus; design: dose or concentration left out as unconfirmed; details: after a 60 min treatment; FeCl3 injury in vivo; ADAMTS-13; cited from earlier work

CC(=O)N[C@@H](CS)C(=O)O [NAC, N-acetylcysteine, reference compound]
lysis on perfusion ([1]; 2 mM and 20 mM, 60 min perfusion): minimal lysis | thrombus surface area reduction ([1]; 2 mM, 60 min perfusion): < 20% | lysis after 60 min perfusion ([1]; 20 mM, 60 min): minimal lysis | whole blood clot lysis over 48 h [2]: no effect on red clots | PRP clot lysis over 48 h [3]: no effect on red clots | thrombolytic activity on white clots (white clots): minimal effects with no perfusion at 1 hour | reperfusion (FeCl-induced thrombi): < 40%

CC(=O)N[C@@H](CSSC[C@H](NC(C)=O)C(=O)O)C(=O)O [DiNAC, N,N′-diacetyl-cystine]
thrombus area vs control ([1]; 0.02 mM, 60 min perfusion): not significantly different from the control | thrombus area reduction ([1]; 0.2 mM, 60 min perfusion): 46±15% | thrombus surface area reduction ([1]; 20 mM acidic solution (not neutralized), 60 min perfusion): 44±47% | thrombus surface area reduction ([1]; 20 mM neutralized with sodium bicarbonate to pH=7, 60 min perfusion): 59±12% | whole blood clot lysis over 48 h [2]: no effect on red clots | PRP clot lysis over 48 h [3]: no effect on red clots | thrombolytic activity on white clots (white clots): highly effective at causing lysis of white clots | time to complete lysis of the white clot ([4]; 20 mM perfusion): ≤ 10 min | pH of solution (pH of DiNAC solution; 2 mM solution): 7 | pH of solution (pH of DiNAC solution; 20 mM solution): 2

B1: Abciximab: inhibits platelet thrombus formation by blocking the glycoprotein IIb/IIIa through an antibody (antibody, chains of the INN, looked up, V domains shown)
VH: EVQLQQSGTVLARPGASVKMSCEASGYTFTNYWMHWVKQRPGQGLEWIGAIYPGNSDTSYIQKFKGKAKLTAVTSTTSVYMELSSLTNEDSAVYYCTLYDGYYVFAYWGQGTLVTVSA
VL: EIVLTQSPVTLSVTPGDSVSLSCRASRDISNNLHWFQQTSHESPRLLIKYASQSMSGIPSRFSGSGSGTDFTLSINSVETEDFGMYFCQQTNSWPYTFGGGTKLEIK
modifications: Fab
reduction in thrombus area ([1]; […] (Table 2), 60 min perfusion): 22±11% | thrombolytic activity on white clots (white clots): minimal effects with no perfusion at 1 hour

B2: ADAMTS-13: recombinant human ADAMTS-13, a protease that cleaves VWF (protein, UniProt Q76LX8 75-1427, looked up)
A disintegrin and …: AAGGILHLELLVAVGPDVFQAHQEDTERYVLTNLNIGAELLRDPSLGAQFRVHLVKMVILTEPEGAPNITANLTSSLLSVCGWSQTINPEDDTDPGHADLVLYITRFDLELPDGNRQVRGVTQLGGACSPTWSCLITEDTGFDLGVTIAHEIGHSFGLEHDGAPGSGCGPSGHVMASDGAAPRAGLAWSPCSRRQLLSLLSAGRARCVWDPPRPQPGSAGHPPDAQPGLYYSANEQCRVAFGPKAVACTFAREHLDMCQALSCHTDPLDQSSCSRLLVPLLDGTECGVEKWCSKGRCRSLVELTPIAAVHGRWSSWGPRSPCSRSCGGGVVTRRRQCNNPRPAFGGRACVGADLQAEMCNTQACEKTQLEFMSQQCARTDGQPLRSSPGGASFYHWGAAVPHSQGDALCRHMCRAIGESFIMKRGDSFLDGTRCMPSGPREDGTLSLCVSGSCRTFGCDGRMDSQQVWDRCQVCGGDNSTCSPRKGSFTAGRAREYVTFLTVTPNLTSVYIANHRPLFTHLAVRIGGRYVVAGKMSISPNTTYPSLLEDGRVEYRVALTEDRLPRLEEIRIWGPLQEDADIQVYRRYGEEYGNLTRPDITFTYFQPKPRQAWVWAAVRGPCSVSCGAGLRWVNYSCLDQARKELVETVQCQGSQQPPAWPEACVLEPCPPYWAVGDFGPCSASCGGGLRERPVRCVEAQGSLLKTLPPARCRAGAQQPAVALETCNPQPCPARWEVSEPSSCTSAGGAGLALENETCVPGADGLEAPVTEGPGSVDEKLPAPEPCVGMSCPPGWGHLDATSAGEKAPSPWGSIRTGAQAAHVWTPAAGSCSVSCGRGLMELRFLCMDSALRVPVQEELCGLASKPGSRREVCQAVPCPARWQYKLAACSVSCGRGVVRRILYCARAHGEDDGEEILLDTQCQGLPRPEPQEACSLEPCPPRWKVMSLGPCSASCGLGTARRSVACVQLDQGQDVEVDEAACAALVRPEASVPCLIADCTYRWHVGTWMECSVSCGDGIQRRRDTCLGPQAQAPVPADFCQHLPKPVTVRGCWAGPCVGQGTPSLVPHEEAAAPGRTTATPAGASLEWSQARGLLFSPAPQPRRLLPGPQENSVQSSACGRQHLEPTGTIDMRGPGQADCAVAIGRPLGEVVTLRVLESSLNCSAGDMLLLWGRLTWRKMCRKLLDMTFSSKTNTLVVRQRCGRPGGGVLLRYGSQLAPETFYRECDMQLFGPWGEIVSPSLSPATSNAGGCRLFINVAPHARIAIHALATNMGAGTEGANASYILIRDTHSLRTTAFHGQQVLYWESESSQAEMEFSEGFLKAQASLRGQYWTLQSWVPEMQDPQSWKGKEGT
thrombus area reduction ([1]; 1 g/mL (Table 2), 60 min perfusion): 19±8% | whole blood clot lysis over 48 h [2]: no effect on red clots | PRP clot lysis over 48 h [3]: no effect on red clots | thrombolytic activity on white clots (white clots): minimal effects with no perfusion at 1 hour | effect on clots and flow ([4]; perfusion): did not alter the clots or restore flow | reduction of thrombus size [5]: 62.3%

From patent publication US20230372272A1, “USE OF CYSTINE AND DERIVATIVES THEREOF AS ANTI-THROMBOTIC AND THROMBOLYTIC AGENTS” (Georgia Tech Research Corporation, priority 2020, published 2023)
